{"source": "patent US9681669B2", "about": "(priority 2012, dated 2017)", "key": {"P. infestans": {"test_system": "P. infestans", "assay_type": "in vivo, Phytophthora infestans", "conditions": "BABA 0.3 g/l; Desiree, Bintje, Ovatio; 6 dpi"}, "[1]": {"test_system": "Pathogenesis-related protein (PR-1)", "assay_type": "in vivo, Solanum tuberosum", "conditions": "BABA 0.3 g/l; all three genotypes"}}, "note": "Like-named read-outs stand apart in the source and are kept apart here."}
{"smiles": "CC(N)CC(=O)O", "note": "(stereo not drawn) [BABA, β-aminobutyric acid]", "values": [{"measurement": "effect on lesion size, SBE compared with BABA-treated plants", "setting": "P. infestans", "value": "not significantly different"}, {"measurement": "PR-1 protein induction compared with SBE", "setting": "[1]", "value": "stronger"}, {"measurement": "necrotic dots or lesions on treated plants", "setting": "Bintje, BABA treatment (0.3 g/l)", "value": "no such lesions were observed"}, {"measurement": "necrotic dots or lesions on treated plants", "setting": "Desiree, two days after BABA treatment (0.3 g/l)", "value": "Small necrotic dots or lesions"}]}
